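Exposure lasted 48 hours, with cells grown in 96-well plates and compounds tested at five concentrations. GI50: concentration for 50% inhibition of growth. At the TGI there is no net growth.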
What was measured:
Assay in all cases: NCI tumour cell line growth inhibition, 48 h
DU-145 prostate = system: DU-145 prostate
SK-MEL-5 melanoma = system: SK-MEL-5 melanoma
SF-539 CNS = system: SF-539 CNS
SK-OV-3 ovarian = system: SK-OV-3 ovarian
A549 NSCLC = system: A549 NSCLC
M14 melanoma = system: M14 melanoma
HL-60(TB) leukemia = system: HL-60(TB) leukemia
A498 renal = system: A498 renal
HOP-92 NSCLC = system: HOP-92 NSCLC
U251 CNS = system: U251 CNS

Compound | GI50 (DU-145 prostate) | TGI (DU-145 prostate) | GI50 (SK-MEL-5 melanoma) | TGI (SK-MEL-5 melanoma) | GI50 (SF-539 CNS) | TGI (SF-539 CNS) | GI50 (SK-OV-3 ovarian) | TGI (SK-OV-3 ovarian) | GI50 (A549 NSCLC) | TGI (A549 NSCLC) | GI50 (M14 melanoma) | TGI (M14 melanoma) | GI50 (HL-60(TB) leukemia) | TGI (HL-60(TB) leukemia) | GI50 (A498 renal) | TGI (A498 renal) | GI50 (HOP-92 NSCLC) | TGI (HOP-92 NSCLC) | GI50 (U251 CNS) | TGI (U251 CNS)
Nc1no[n+]([O-])c1-c1nnc2c(n1)-c1ccccc1C2=O | 1.74 µM | 3.45 µM | 1.66 µM | 3.13 µM | 1.8 µM | 3.67 µM | 16.2 µM | 51.5 µM | 5.44 µM | 20.3 µM | 1.78 µM | 3.66 µM | 2.13 µM | 5.54 µM | 22.2 µM | 63.2 µM | 2.21 µM | 6.63 µM | 3.76 µM | 13.7 µM
COc1cc(NCCC2CCCCN2)c2ncccc2c1OC (centres undefined) | 13.1 µM | 26.9 µM | 4.28 µM | 14.9 µM | 14.1 µM | 28.5 µM | 20.3 µM | 38.9 µM | 19.4 µM | 41.9 µM | 16.5 µM | 36.3 µM | – | – | 22.6 µM | 41.8 µM | – | – | 4.12 µM | 16 µM
O=C(OCc1ccccc1)n1cccc1 | – | – | – | > 100 µM | – | > 100 µM | – | > 100 µM | – | > 100 µM | – | > 100 µM | – | > 100 µM | – | > 100 µM | – | > 100 µM | – | > 100 µM
C=C1C(C(=O)O)C1C(=O)O (centres undefined) | – | – | – | > 100 µM | – | > 100 µM | – | > 100 µM | – | > 100 µM | – | > 100 µM | – | > 100 µM | – | > 100 µM | – | > 100 µM | – | > 100 µM
CC(C)(C)OC1=C(OC(C)(C)C)C(O)(c2ccc(Cl)cc2)C1=O (centres undefined) | – | – | – | > 100 µM | – | > 100 µM | – | > 100 µM | – | > 100 µM | – | > 100 µM | – | > 100 µM | – | > 100 µM | – | – | – | > 100 µM
Cc1ccc(/C(=C/C=C(C#N)C#N)Sc2nc3ccccc3s2)cc1 | 4.18 µM | 14.5 µM | 13.3 µM | 26.6 µM | 4.77 µM | 20.8 µM | 14.1 µM | 30 µM | 19.8 µM | 45.5 µM | – | – | 7.02 µM | > 100 µM | 20.9 µM | 35.9 µM | – | – | – | –
CC[P+]1(c2ccccc2)CCCCC1 | – | – | – | > 100 µM | – | > 100 µM | – | > 100 µM | – | > 100 µM | – | > 100 µM | – | > 100 µM | – | – | – | > 100 µM | – | > 100 µM
Cc1cn2c(/C=C3\C(=O)N(C)c4ccc(Cl)cc43)c(C)nc2s1 | – | – | 1.34 µM | 19.5 µM | 2.46 µM | 6.93 µM | – | – | 6.88 µM | 32.9 µM | 3.3 µM | 32.1 µM | 3.36 µM | > 100 µM | 10.8 µM | > 100 µM | 6.3 µM | 45.4 µM | 3.27 µM | 12.3 µM
Oc1cc(O)c2c(c1)OC(c1ccc(O)c(O)c1)C(O)C2c1c(O)cc(O)c2c1OC(c1ccc(O)c(O)c1)C(O)C2 (centres undefined) | – | > 100 µM | – | > 100 µM | – | > 100 µM | – | > 100 µM | – | > 100 µM | – | > 100 µM | – | – | – | > 100 µM | – | > 100 µM | – | > 100 µM
O=C1C2C3C=C4c5ccccc5N(c5ccccc5)C4([C@@H]2C(=O)N1c1ccc(F)cc1)[C@H]1C(=O)N(c2ccc(F)cc2)C(=O)[C@@H]31 (some centres undefined) | – | – | – | – | – | > 100 µM | – | – | – | > 100 µM | – | > 100 µM | – | > 100 µM | – | – | – | > 100 µM | – | > 100 µM
NCCCNc1nc2ccccc2c2c(=O)c3cc(F)cc(Cl)c3sc12 | 1.72 µM | 3.17 µM | 6.5 µM | 20.3 µM | 1.83 µM | 3.27 µM | – | – | 1.8 µM | 3.55 µM | 1.78 µM | 3.28 µM | 2.45 µM | 6.58 µM | 2.11 µM | 7.04 µM | 1.87 µM | 11.8 µM | 1.72 µM | 3.37 µM
N#CC(C#N)=C1CCC2C(=C(C#N)C#N)CCC12 (centres undefined) | – | – | – | > 100 µM | – | > 100 µM | – | > 100 µM | – | > 100 µM | – | > 100 µM | – | > 100 µM | – | > 100 µM | – | > 100 µM | – | > 100 µM
CC(=N/NC(N)=S)/C(C)=N/NC(N)=S | – | > 100 µM | – | > 100 µM | – | > 100 µM | – | – | – | > 100 µM | – | > 100 µM | – | > 100 µM | – | – | – | – | – | –
CSc1cc(C(C)(C)C)ccc1C(O)c1ccc(C(C)(C)C)cc1SC | – | – | – | 27.5 µM | – | 32.3 µM | – | 32.2 µM | – | 24.4 µM | – | 26.9 µM | – | 21.2 µM | – | 26.7 µM | – | 28.9 µM | – | 27.1 µM
C=CCC1C(=O)CC2(C)C(CC=C)C(=O)CC12C (centres undefined) | – | – | – | > 100 µM | – | > 100 µM | – | > 100 µM | – | > 100 µM | – | > 100 µM | – | > 100 µM | – | – | – | > 100 µM | – | > 100 µM
N#CC1=C(c2ccccc2)OC2(N)OC(c3ccccc3)=C(C#N)C12C#N (centres undefined) | – | – | – | > 100 µM | – | > 100 µM | – | > 100 µM | – | > 100 µM | – | > 100 µM | – | – | – | > 100 µM | – | – | – | > 100 µM
CC1OC(CC2C=CCc3c(O)c4c(c(O)c32)C(=O)c2ccccc2C4=O)CC(NC(=O)C(F)(F)F)C1O (centres undefined) | – | – | – | 27.3 µM | – | 15 µM | – | 24.6 µM | – | – | – | 16.1 µM | – | 26.7 µM | – | 16.5 µM | – | 8.39 µM | – | 15.4 µM
C/C(=N\NC(=S)N1CCN(c2ccccn2)CC1)c1cccc2cccnc12 | – | – | – | > 43.2 µM | – | > 31.6 µM | – | 43.5 µM | – | > 100 µM | – | > 47.4 µM | – | 12.3 µM | – | 71.1 µM | – | 52.3 µM | – | > 29.7 µM
Cc1ccc(NC(=O)CCC(=O)C2Cc3ccccc3C2=O)cc1C (centres undefined) | – | – | – | > 100 µM | – | > 100 µM | – | > 100 µM | – | > 100 µM | – | > 100 µM | – | > 100 µM | – | > 100 µM | – | > 100 µM | – | > 100 µM
O=C(c1ccc(Nc2nccc(NCCCCNc3ccnc4cc(Cl)ccc34)n2)cc1)N1CCCCC1 | 3.53 µM | 14.3 µM | 1.61 µM | 2.98 µM | – | – | 5.45 µM | 18 µM | 1.3 µM | 11.9 µM | 1.71 µM | 3.43 µM | – | – | 0.674 µM | 6.22 µM | 1.52 µM | 3.95 µM | 1.53 µM | 3.38 µM

Reference: PubChem BioAssay (NCI)
